Where a name gives a salt, the structure may show the parent alone.
How the values were obtained:
Type in all cases: biochemical
TrkA = target: T1, TrkA (Homo sapiens, UniProt P04629); experiment: Inhibition of kinase TrkA (Kinase-Glo); conditions: TrkA 4 μg/ml, 30 μM ATP, two hours at 30° C.
T1 construct: purchased Upstate 14-571
Procedure: Protein TrkA (Upstate 14-571; batch #25634U) is incubated at a concentration of 4 μg/ml in a buffer containing 8 mM of MOPS/NaOH pH7, 0.2 mM EDTA, 40 mM MgAc (Sigma #229768), 1 mM DTT (Fluka #43816), NaOV 1 mM, 0.01% Triton Tx100, in the presence of 1 mg/ml of peptide substrate poly-EY (Upstate #P0275), and 30 μM of ATP.
The dilution buffer for TrkA is as follows: 20 mM MOPS/NaOH pH7, 1 mM EDTA, 5% glycerol, 0.01% Brij35, 0.1% 2-mercapto, 1 mg/ml BSA.
(§1) The compound to be tested is first added to the enzyme to give a reaction volume of 50 μl. The dilution of the compounds of the invention is distributed so as to obtain a scale of final concentrations between 10 nM and 30 μM.
(§2) After incubation of the reaction mixture for two hours at 30° C., the level of ATP that remains is assayed using the Kinase-Glo Luminescent Kinase Assay (Promega #V6712) according to the conditions recommended by the supplier. The luminescence induced is read in a plate reader (Envision-Perkin Elmer).

RET = target: T2, RET (Homo sapiens, UniProt P07949); experiment: Inhibition of RET kinase activity, recombinant RET method (Kinase-Glo); conditions: RET 2 μg/ml, poly-EY4 substrate, 20 μM ATP, two hours at 30° C.
T2 construct: purchased Upstate 14-570MG
Method in brief: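 Recombinant RET at 2 μg/ml in 20 mM MOPS/NaOH pH 7.0, 1 mM EDTA, 5% glycerol, 0.01% Brij35, 0.1% 2-mercaptoethanol, 1 mg/ml BSA; compounds 10 nM–30 μM final.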

TrkB = target: T3, TrkB (Homo sapiens, UniProt Q16620); experiment: Inhibition of kinase TrkB (Kinase-Glo); conditions: TrkB 4 μg/ml, 40 μM ATP, two hours at 30° C.
T3 construct: purchased Upstate 14-507
Procedure: Protein TrkB (Upstate 14-507; batch #25578U) is incubated at a concentration of 4 μg/ml in a buffer containing 8 mM of MOPS/NaOH pH7, 0.2 mM EDTA, 40 mM MgAc (Sigma #229768), 1 mM DTT (Fluka #43816), NaOV 1 mM, 25 mM 2-glycerolphosphate (Sigma #G9891), in the presence of 2.5 mg/ml of peptide substrate poly-EY (Upstate #P0275), and 40 μM of ATP.
The dilution buffer for TrkB is as follows: 20 mM MOPS/NaOH pH7, 1 mM EDTA, 5% glycerol, 0.01% Brij35, 0.1% 2-mercapto, 1 mg/ml BSA.
as §1, §2

PIM-1 = target: T4, PIM-1 (Homo sapiens, UniProt P11309); experiment: Inhibition of kinase PIM-1 (Kinase-Glo); conditions: PIM-1 0.625 μg/ml, 10 μM ATP, forty minutes at 30° C.
T4 construct: purchased Upstate 14-573
Procedure: Protein PIM-1 (Upstate #14-573 batch 25864U) is incubated at a concentration of 0.625 μg/ml in a buffer containing 8 mM of MOPS/NaOH pH7, 0.2 mM EDTA, 5 mM MgAc (Sigma #229768), 0.01% Triton Tx100, in the presence of 70 μM of peptide substrate S6 Kinase/Rsk2 (Upstate #12-243), and 10 μM of ATP.
The dilution buffer for PIM-1 is as follows: 20 mM MOPS/NaOH pH7, 1 mM EDTA, 5% glycerol, 0.01% Brij35, 0.1% 2-mercapto, 1 mg/ml BSA
as §1
as §2, with “forty minutes” for “two hours”

T2 sequence (P07949 29-1114): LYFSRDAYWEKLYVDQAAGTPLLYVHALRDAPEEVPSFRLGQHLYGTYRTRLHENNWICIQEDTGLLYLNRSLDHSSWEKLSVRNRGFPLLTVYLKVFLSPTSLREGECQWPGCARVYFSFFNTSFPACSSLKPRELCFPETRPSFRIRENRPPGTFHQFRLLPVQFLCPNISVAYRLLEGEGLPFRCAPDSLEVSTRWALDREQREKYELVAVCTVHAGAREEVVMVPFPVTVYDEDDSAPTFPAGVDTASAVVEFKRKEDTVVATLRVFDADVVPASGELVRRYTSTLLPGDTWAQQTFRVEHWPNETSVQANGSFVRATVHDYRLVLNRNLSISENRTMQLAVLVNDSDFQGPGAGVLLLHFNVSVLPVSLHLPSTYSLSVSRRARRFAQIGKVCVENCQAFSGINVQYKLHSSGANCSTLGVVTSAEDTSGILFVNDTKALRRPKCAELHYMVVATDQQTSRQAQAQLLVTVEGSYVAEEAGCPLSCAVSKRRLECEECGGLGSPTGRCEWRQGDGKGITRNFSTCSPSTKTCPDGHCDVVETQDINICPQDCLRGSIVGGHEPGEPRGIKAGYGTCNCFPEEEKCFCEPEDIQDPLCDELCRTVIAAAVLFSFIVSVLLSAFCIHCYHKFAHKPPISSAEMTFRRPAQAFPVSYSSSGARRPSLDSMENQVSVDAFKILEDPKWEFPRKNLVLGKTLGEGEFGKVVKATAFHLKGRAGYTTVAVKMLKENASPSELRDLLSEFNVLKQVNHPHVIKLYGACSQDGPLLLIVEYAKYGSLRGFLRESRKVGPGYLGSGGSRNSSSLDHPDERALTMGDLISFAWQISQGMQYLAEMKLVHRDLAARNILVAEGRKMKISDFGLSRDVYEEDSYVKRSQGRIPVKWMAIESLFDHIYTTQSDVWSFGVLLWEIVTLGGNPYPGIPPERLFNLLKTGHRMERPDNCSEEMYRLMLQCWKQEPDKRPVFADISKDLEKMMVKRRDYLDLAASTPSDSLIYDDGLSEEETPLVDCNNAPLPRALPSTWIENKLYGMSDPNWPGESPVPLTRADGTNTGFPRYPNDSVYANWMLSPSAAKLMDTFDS
T1 sequence (P04629 33-796): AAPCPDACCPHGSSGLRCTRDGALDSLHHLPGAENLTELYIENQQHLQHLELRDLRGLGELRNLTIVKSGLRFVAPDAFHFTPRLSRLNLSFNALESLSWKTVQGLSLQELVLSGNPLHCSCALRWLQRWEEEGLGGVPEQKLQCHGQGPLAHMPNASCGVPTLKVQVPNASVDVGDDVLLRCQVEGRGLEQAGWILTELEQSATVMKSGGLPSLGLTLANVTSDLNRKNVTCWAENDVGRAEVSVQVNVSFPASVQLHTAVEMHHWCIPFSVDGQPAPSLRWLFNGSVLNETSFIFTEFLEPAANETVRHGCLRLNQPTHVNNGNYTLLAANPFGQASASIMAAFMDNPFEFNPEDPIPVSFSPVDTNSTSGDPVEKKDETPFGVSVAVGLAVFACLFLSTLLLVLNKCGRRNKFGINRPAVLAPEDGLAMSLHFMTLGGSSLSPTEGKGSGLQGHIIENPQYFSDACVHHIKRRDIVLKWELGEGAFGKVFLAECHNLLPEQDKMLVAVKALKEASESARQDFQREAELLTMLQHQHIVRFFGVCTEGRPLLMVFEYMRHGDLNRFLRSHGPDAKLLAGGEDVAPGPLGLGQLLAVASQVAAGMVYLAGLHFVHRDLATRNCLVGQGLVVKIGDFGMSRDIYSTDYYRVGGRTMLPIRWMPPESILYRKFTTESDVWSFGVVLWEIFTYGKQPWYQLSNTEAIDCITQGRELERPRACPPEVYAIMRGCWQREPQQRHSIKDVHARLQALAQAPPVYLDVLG
T4 sequence (P11309 whole entry): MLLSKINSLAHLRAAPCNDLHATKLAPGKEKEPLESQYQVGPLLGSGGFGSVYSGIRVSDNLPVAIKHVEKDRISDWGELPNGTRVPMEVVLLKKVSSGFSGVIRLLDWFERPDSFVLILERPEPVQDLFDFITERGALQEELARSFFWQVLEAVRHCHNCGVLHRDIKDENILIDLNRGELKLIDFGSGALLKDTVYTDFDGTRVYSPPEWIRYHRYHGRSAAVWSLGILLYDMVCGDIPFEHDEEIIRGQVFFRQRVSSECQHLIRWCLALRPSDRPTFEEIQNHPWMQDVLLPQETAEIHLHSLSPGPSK
T3 sequence (Q16620 32-822): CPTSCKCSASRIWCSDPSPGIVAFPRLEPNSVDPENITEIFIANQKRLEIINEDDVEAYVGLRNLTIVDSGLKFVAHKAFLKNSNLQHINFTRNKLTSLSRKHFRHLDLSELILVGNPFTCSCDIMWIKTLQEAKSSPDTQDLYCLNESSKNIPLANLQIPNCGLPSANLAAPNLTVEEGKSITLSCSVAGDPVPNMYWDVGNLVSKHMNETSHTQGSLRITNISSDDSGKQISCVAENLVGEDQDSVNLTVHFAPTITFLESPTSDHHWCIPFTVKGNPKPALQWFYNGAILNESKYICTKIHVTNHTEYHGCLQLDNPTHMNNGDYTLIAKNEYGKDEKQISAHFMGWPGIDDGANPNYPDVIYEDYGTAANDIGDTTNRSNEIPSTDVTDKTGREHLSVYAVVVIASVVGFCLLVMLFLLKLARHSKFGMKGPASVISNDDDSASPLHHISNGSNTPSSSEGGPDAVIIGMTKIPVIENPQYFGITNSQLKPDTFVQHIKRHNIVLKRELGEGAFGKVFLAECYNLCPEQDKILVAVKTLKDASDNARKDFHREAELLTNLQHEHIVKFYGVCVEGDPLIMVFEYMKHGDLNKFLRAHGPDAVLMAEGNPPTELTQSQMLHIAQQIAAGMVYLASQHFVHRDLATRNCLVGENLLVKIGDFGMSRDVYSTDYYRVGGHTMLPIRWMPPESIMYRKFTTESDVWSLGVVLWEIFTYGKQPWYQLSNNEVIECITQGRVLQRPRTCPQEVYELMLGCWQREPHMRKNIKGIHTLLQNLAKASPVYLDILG

Row | SMILES | IC50 (TrkA) | IC50 (RET) | IC50 (TrkB) | IC50 (PIM-1)
1 | CCOC(=O)c1c[nH]c2c(=O)[nH]c3ccc(-c4ccnc(Nc5ccccc5)n4)cc3c12 [Compound 266, 4-Oxo-8-(2-phenylamino-pyrimidin-4-yl)-4,5-dihydro-3H-pyrrolo[2,3-c]quinoline-1-ethyl carboxylate] | 1 to 10 µM | 1 to 10 µM | 1 to 10 µM | –
2 | CCOC(=O)c1c[nH]c2c(=O)[nH]c3ccc(S(=O)(=O)N(CCC#N)C4CC4)cc3c12 [Compound 127, 8-[(2-Cyano-ethyl)-cyclopropyl-sulfamoyl]-4-oxo-4,5-dihydro-3H-pyrrolo[2,3-c]quinoline-1-ethyl carboxylate] | 1 to 10 µM | < 0.1 µM | 1 to 10 µM | 10 to 100 µM
3 | CCCOC(=O)c1c[nH]c2c(=O)[nH]c3ccc(S(=O)(=O)N(C)C4CCNCC4)cc3c12 [Compound 120, 8-(Methyl-piperidin-4-yl-sulfamoyl)-4-oxo-4,5-dihydro-3H-pyrrolo[2,3-c]quinoline-1-propyl carboxylate] | 1 to 10 µM | < 0.1 µM | 10 to 100 µM | 10 to 100 µM
4 | COC(=O)c1c[nH]c2c(=O)[nH]c3ccc(S(=O)(=O)NC4CCCCC4)cc3c12 [Compound 111, 8-Cyclohexylsulfamoyl-4-oxo-4,5-dihydro-3H-pyrrolo[2,3-c]quinoline-1-methyl carboxylate] | 1 to 10 µM | 1 to 10 µM | 1 to 10 µM | –
5 | CCOC(=O)c1c[nH]c2c(=O)[nH]c3ccc(-c4csc(C5CCNCC5)n4)cc3c12 [Compound 277, 4-Oxo-8-(2-piperidin-4-yl-thiazol-4-yl)-4,5-dihydro-3H-pyrrolo[2,3-c]quinoline-1-ethyl carboxylate] | – | 0.1 to 1 µM | – | 1 to 10 µM
6 | CCOC(=O)c1c[nH]c2c(=O)[nH]c3ccc(-c4ccnc(N(C)CCN(C)C)n4)cc3c12 [Compound 269, 8-{2-[(2-Dimethylamino-ethyl)-methyl-amino]-pyrimidin-4-yl}-4-oxo-4,5-dihydro-3H-pyrrolo[2,3-c]quinoline-1-ethyl carboxylate formate] | – | 1 to 10 µM | – | 1 to 10 µM
7 | CCOC(=O)c1c[nH]c2c(=O)[nH]c3ccc(-c4ccnc(Nc5nc6ccccc6[nH]5)n4)cc3c12 [Compound 267, 8-[2-(1H-Benzoimidazol-2-ylamino)-pyrimidin-4-yl]-4-oxo-4,5-dihydro-3H-pyrrolo[2,3-c]quinoline-1-ethyl carboxylate] | 10 to 100 µM | 1 to 10 µM | 10 to 100 µM | –
8 | O=C(OC1CCCC1)c1c[nH]c2c(=O)[nH]c3ccc(S(=O)(=O)NC4CCNCC4)cc3c12 [Compound 116, 4-Oxo-8-(piperidin-4-ylsulfamoyl)-4,5-dihydro-3H-pyrrolo[2,3-c]quinoline-1-cyclopentyl carboxylate] | – | < 0.1 µM | – | 1 to 10 µM
9 | O=C(OCC1CCOC1)c1c[nH]c2c(=O)[nH]c3ccc(S(=O)(=O)NC4CCNCC4)cc3c12 (stereo not shown) [Compound 118, 4-Oxo-8-(piperidin-4-ylsulfamoyl)-4,5-dihydro-3H-pyrrolo[2,3-c]quinoline-1-methyltetrahydrofuran-3-yl carboxylate] | – | 0.1 to 1 µM | – | 10 to 100 µM

Continued, values first:

Row | IC50 (TrkA) | IC50 (RET) | IC50 (TrkB) | IC50 (PIM-1) | SMILES
10 | 10 to 100 µM | 0.1 to 1 µM | 10 to 100 µM | – | CCOC(=O)c1c[nH]c2c(=O)[nH]c3ccc(S(=O)(=O)Nc4cccc(OC)c4)cc3c12 [Compound 8, 8-(3-Methoxy-phenylsulfamoyl)-4-oxo-4,5-dihydro-3H-pyrrolo[2,3-c]quinoline-1-ethyl carboxylate]
11 | 1 to 10 µM | 0.1 to 1 µM | 1 to 10 µM | – | CCOC(=O)c1c[nH]c2c(=O)[nH]c3ccc(NS(=O)(=O)c4ccc(F)cc4)cc3c12 [Compound 43, 8-(4-Fluoro-benzenesulfonylamino)-4-oxo-4,5-dihydro-3H-pyrrolo[2,3-c]quinoline-1-ethyl carboxylate]
12 | 1 to 10 µM | < 0.1 µM | 1 to 10 µM | – | CCOC(=O)c1c[nH]c2c(=O)[nH]c3ccc(S(=O)(=O)Nc4ccccc4)cc3c12 [Compound 2, 4-Oxo-8-phenylsulfamoyl-4,5-dihydro-3H-pyrrolo[2,3-c]quinoline-1-ethyl carboxylate]
13 | 10 to 100 µM | 0.1 to 1 µM | 10 to 100 µM | 10 to 100 µM | CCOC(=O)c1c[nH]c2c(=O)[nH]c3ccc(-c4cc[nH]n4)cc3c12 [Compound 282, 4-Oxo-8-(1H-pyrazol-3-yl)-4,5-dihydro-3H-pyrrolo[2,3-c]quinoline-1-ethyl carboxylate]
14 | 1 to 10 µM | 0.1 to 1 µM | 1 to 10 µM | – | CCOC(=O)c1c[nH]c2c(=O)[nH]c3ccc(S(=O)(=O)N4CCCC4)cc3c12 [Compound 162, 4-Oxo-8-(pyrrolidine-1-sulfonyl)-4,5-dihydro-3H-pyrrolo[2,3-c]quinoline-1-ethyl carboxylate]
15 | 10 to 100 µM | 0.1 to 1 µM | 10 to 100 µM | – | CCOC(=O)c1c[nH]c2c(=O)[nH]c3ccc(S(=O)(=O)Nc4ccc(C)cc4)cc3c12 [Compound 6, 4-Oxo-8-p-tolylsulfamoyl-4,5-dihydro-3H-pyrrolo[2,3-c]quinoline-1-ethyl carboxylate]
16 | 1 to 10 µM | 1 to 10 µM | 1 to 10 µM | – | CCOC(=O)c1c[nH]c2c(=O)[nH]c3ccc(NS(=O)(=O)c4ccccc4F)cc3c12 [Compound 45, 8-(2-Fluoro-benzenesulfonylamino)-4-oxo-4,5-dihydro-3H-pyrrolo[2,3-c]quinoline-1-ethyl carboxylate]
17 | 1 to 10 µM | 0.1 to 1 µM | 1 to 10 µM | – | CCOC(=O)c1c[nH]c2c(=O)[nH]c3ccc(N(C)S(=O)(=O)c4ccccc4)cc3c12 [Compound 58, 8-(Benzenesulfonyl-methyl-amino)-4-oxo-4,5-dihydro-3H-pyrrolo[2,3-c]quinoline-1-ethyl carboxylate]
18 | 1 to 10 µM | 0.1 to 1 µM | 1 to 10 µM | – | CCOC(=O)c1c[nH]c2c(=O)[nH]c3ccc(NS(=O)(=O)c4cccs4)cc3c12 [Compound 56, 4-Oxo-8-(thiophene-2-sulfonylamino)-4,5-dihydro-3H-pyrrolo[2,3-c]quinoline-1-ethyl carboxylate]
19 | 1 to 10 µM | 0.1 to 1 µM | 1 to 10 µM | – | CCOC(=O)c1c[nH]c2c(=O)[nH]c3ccc(-c4cccc(N)c4)cc3c12 [Compound 234, Trifluoroacetate of 8-(3-aminophenyl)-4-oxo-4,5-dihydro-3H-pyrrolo[2,3-c]quinoline-1-ethyl carboxylate]
20 | – | 0.1 to 1 µM | – | 1 to 10 µM | CCOC(=O)c1c[nH]c2c(=O)[nH]c3ccc(-c4ccnc(NC)n4)cc3c12 [Compound 263, 8-(2-Methylamino-pyrimidin-4-yl)-4-oxo-4,5-dihydro-3H-pyrrolo[2,3-c]quinoline-1-ethyl carboxylate formate]
21 | 10 to 100 µM | 10 to 100 µM | 1 to 10 µM | – | CCOC(=O)c1c[nH]c2c(=O)[nH]c3ccc(NS(=O)(=O)c4ccc(C(C)(C)C)cc4)cc3c12 [Compound 49, 8-(4-tert-Butyl-benzenesulfonylamino)-4-oxo-4,5-dihydro-3H-pyrrolo[2,3-c]quinoline-1-ethyl carboxylate]
22 | 1 to 10 µM | 0.1 to 1 µM | 1 to 10 µM | – | CCOC(=O)c1c[nH]c2c(=O)[nH]c3ccc(NS(=O)(=O)c4cccc(F)c4)cc3c12 [Compound 44, 8-(3-Fluoro-benzenesulfonylamino)-4-oxo-4,5-dihydro-3H-pyrrolo[2,3-c]quinoline-1-ethyl carboxylate]

Reference: patent US8426437B2, “Pyrroloquinoline derivatives and their use as protein kinases inhibitors” (Pierre Fabre Medicament, priority 2005, dated 2013)
